The text below walks through data of patent US20110008802A1, “TNFalpha GENE EXPRESSION AS A BIOMARKER OF SENSITIVITY TO ANTAGONISTS OF INHIBITOR OF APOPTOSIS PROTEINS” (TETRALOGIC PHARMACEUTICALS CORP., priority 2007, published 2011).

The test system of data set [1] is OVCAR-8 cells. Kind of data set: MTT assay of compound C with or without TNFα blocking antibody, OVCAR-8 cells. The following applies: compound C+anti-TNFα antibody (MAB610) vs compound C alone, 72 hrs. Type of data set: cell-based, human. The method, then:
(§1) We have previously observed that our compounds promote rapid cIAP-1 degradation. Therefore, we hypothesized that degradation of cIAP-1 may result in autocrine activation of the death-receptor pathway by TNFα. To test this, we used TNFα blocking antibody in an MTT assay. Briefly, indicated ovarian cancer cell lines were seeded into 96-well cell culture plates at a density of 5,000 cells per well. The next day, anti-TNFα antibody (MAB610, R&D Systems, Minneapolis, Minn.) was added to cells at a final concentration of 10 µg/mL and allowed to incubate for 1 hr at 37° C., 5% CO2. Following incubation, a range of concentrations of the cIAP antagonist compound C was added to cells. Cells were incubated in the presence of compound C+anti-TNFα antibody or in the presence of compound C alone as a control for an additional 72 hrs. Following 72 hr incubation, MTT reagent (3-(4,5-dimethylthiazolyl-2)-2,5-diphenyltetrazolium bromide; SIGMA, St. Louis, Mo.) was added to all wells at a final concentration of 1 mg/mL and allowed to incubate for 2 hrs at 37° C., 5% CO2. Following a 2 hr incubation, all media was removed from wells and […] DMSO was added to solubilize formazan crystals. After a brief incubation at room temp on a microplate shaker, absorbance was measured at 570 nm using a Victor^2V fluorescent microplate reader (Perkin-Elmer, Turku, Finland). […]

Data set [2] deals with SKOV3 cells. Kind of data set: MTT assay of compound C with or without TNFα blocking antibody, SKOV3 cells. Particulars: compound C+anti-TNFα antibody (MAB610) vs compound C alone, 72 hrs. Type of data set: cell-based, human. The procedure:
as §1
In general terms: Tetrazolium assays rely on reduction of a dye to a coloured formazan, in cell work by metabolically active cells.

As for `CN[C@@H](C)C(=O)N[C@H](C(=O)N1C[C@@H](O)C[C@H]1CC1=C(C2=C(C[C@@H]3C[C@H](O)CN3C(=O)[C@@H](NC(=O)[C@H](C)NC)[C@@H](C)OC)c3ccc(F)cc3C2)Cc2cc(F)ccc21)[C@@H](C)OC` [compound C], the “effect of anti-TNFα antibody on cIAP antagonist induced cytotoxicity (CC50 curve, FIG. 1)” value in data set [1] is “abrogates cIAP antagonist induced cytotoxicity”. Further, in data set [2], the “effect of anti-TNFα antibody on cIAP antagonist induced cytotoxicity (CC50 curve, FIG. 2)” value is “abrogates cIAP antagonist induced cytotoxicity”.
